Results as given in patent EP3628664A1, “IRREVERSIBLE INHIBITORS OF KRAS G12C MUTANT” (Max-Planck-Gesellschaft zur Förderung der Wissenschaften …, priority 2018, dated 2020).
Blank lines part the entries; values can stand above or below the compound they belong to.

How the values were obtained:
KRas G12C [1] = target: T1, KRas G12C (Homo sapiens, UniProt P01116, G12C); experiment: Tethering assay: covalent adduct formation determined by MALDI; format: binding; settings: 20 mM HEPES, pH 7.5, 150 mM NaCl, room temperature; for Covalent adduct formation 30 min: after 30 min; for Covalent adduct formation 24h: after 24h; for Covalent adduct formation 48h: after 48h
Protocol: Protein was incubated with the compounds in 20 mM HEPES, pH 7.5, 150 mM NaCl at room temperature for the specific times. For MALDI experiments, a saturated solution of sinapic acid (Aldrich) in H2O (0.1% TFA) / ACN (2:1) was used as matrix. 1 µL of the samples was mixed with 5 µL of matrix, and 1 µL of this mixture was placed on an MTP 384 ground steel target plate and dried in air. Mass spectra were obtained over the m/z range 17.000-21.000 using a Bruker UltrafleXtreme TOF/TOF mass spectrometer. […]

[2] = Hydrolysis stability in HEPES buffer (LC-MS); format: physicochemical; settings: HEPES buffer (pH 7.5), 37 °C, 24 hours
Protocol: Compound 4 was dissolved in HEPES (4-(2-hydroxyethyl)-1-piperazineethanesulfonic acid) buffer (pH 7.5) at 37 °C for 24 hours.

[3] = LC-MS stability of compound with glutathione in PBS buffer at 37 °C; format: physicochemical
KRas G12C [4] = target: T1, KRas G12C; experiment: Competitive LC-MS experiment with KRas G12C in the presence of glutathione; format: binding
Protocol: In competitive experiments it was shown that the inventive compounds bind selectively to the KRas G12C mutant in the presence of glutathione (GSH).
Cell indices ±s.d. were measured in technical triplicates and biological duplicates. Staurosporin was used as control compound.

SMILES: CC(C)(C)c1cc(NCC(=O)N2CCN(C(=O)c3cnc(Cl)nc3)CC2)c(O)cc1Cl [Compound 3, 2-((5-(tert-butyl)-4-chloro-2-hydroxyphenyl)amino)-1-(4-(2-chloropyrimidine-5-carbonyl)piperazin-1-yl)ethan-1-one]
- Covalent adduct formation 30 min (KRas G12C [1]): +++ (covalent labeling > 90%)
- Covalent adduct formation 24h (KRas G12C [1]): +++ (covalent labeling > 90%)
- Covalent adduct formation 48h (KRas G12C [1]): +++ (covalent labeling > 90%)

SMILES: CCC(C)(C)c1ccc(O)c(NCC(=O)N2CCN(C(=O)c3cnc(Cl)nc3)CC2)c1 [Compound 2, 1-(4-(2-chloropyrimidine-5-carbonyl)piperazin-1-yl)-2-((2-hydroxy-5-(tert-pentyl)phenyl)amino)ethan-1-one]
- Covalent adduct formation 30 min (KRas G12C [1]): +++ (covalent labeling > 90%)
- Covalent adduct formation 24h (KRas G12C [1]): +++ (covalent labeling > 90%)
- Covalent adduct formation 48h (KRas G12C [1]): +++ (covalent labeling > 90%)

SMILES: CC1(c2cc(NCC(=O)N3CCN(C(=O)c4cnc(Cl)nc4)CC3)c(O)cc2Cl)CC1 [Compound 5, 2-((4-chloro-2-hydroxy-5-(1-methylcyclopropyl)phenyl)amino)-1-(4-(2-chloropyrimidine-5-carbonyl)piperazin-1-yl)ethan-1-one]
- Covalent adduct formation 30 min (KRas G12C [1]): +++ (covalent labeling > 90%)
- Covalent adduct formation 24h (KRas G12C [1]): +++ (covalent labeling > 90%)
- Covalent adduct formation 48h (KRas G12C [1]): +++ (covalent labeling > 90%)

SMILES: CC(C)(C)c1ccc(O)c(NCC(=O)N2CCN(C(=O)c3cnc(Cl)nc3)CC2)c1 [Compound 1, 2-((5-(tert-butyl)-2-hydroxyphenyl)amino)-1-(4-(2-chloropyrimidine-5-carbonyl)piperazin-1-yl)ethan-1-one]
- Covalent adduct formation 30 min (KRas G12C [1]): +++ (covalent labeling > 90%)
- Covalent adduct formation 24h (KRas G12C [1]): +++ (covalent labeling > 90%)
- Covalent adduct formation 48h (KRas G12C [1]): +++ (covalent labeling > 90%)

SMILES: CCC(C)(C)c1cc(NCC(=O)N2CCN(C(=O)c3cnc(Cl)nc3)CC2)c(O)cc1Cl [Compound 4, 2-((4-chloro-2-hydroxy-5-(tert-pentyl)phenyl)amino)-1-(4-(2-chloropyrimidine-5-carbonyl)piperazin-1-yl)ethan-1-one]
- Covalent adduct formation 30 min (KRas G12C [1]): +++ (covalent labeling > 90%)
- Covalent adduct formation 24h (KRas G12C [1]): +++ (covalent labeling > 90%)
- Covalent adduct formation 48h (KRas G12C [1]): +++ (covalent labeling > 90%)
- stability against hydrolysis [2]: stable against hydrolysis
- incubation time after which compound remains unreacted ([3]; in the presence of glutathione): more than 18 hours
- formation of the glutathione-4 covalent adduct ([3]; mixture with glutathione): occurs slowly
- stability ([3]; mixture with glutathione, up to 24 hours): good stability
- remaining at 18 h ([3]; pH 7.5, with glutathione, after 18 hours incubation time, read-out: compound remains unreacted): ~50%
- glutathione-4 adduct formation (KRas G12C [4]; KRas G12C, compound 4 and glutathione, up to 5 hours): No glutathione-4 adduct formation could be observed
- covalent adduct formation with KRas G12C (KRas G12C [4]; in the presence of glutathione, after 1 hour): Nearly complete

Continued, values first:

- Covalent adduct formation 30 min (KRas G12C [1]): + (5 < covalent labeling ≤ 50)
- Covalent adduct formation 24h (KRas G12C [1]): ++ (50 < covalent labeling ≤ 90)
- Covalent adduct formation 48h (KRas G12C [1]): +++ (covalent labeling > 90%)
SMILES: CCC(C)(C)c1cc(NCC(=O)N2CCN(C(=O)c3ccnc(Cl)n3)CC2)c(O)cc1Cl [Compound 6, 2-((4-chloro-2-hydroxy-5-(tert-pentyl)phenyl)amino)-1-(4-(2-chloropyrimidine-4-carbonyl)piperazin-1-yl)ethan-1-one]

- Covalent adduct formation 30 min (KRas G12C [1]): +++ (covalent labeling > 90%)
- Covalent adduct formation 24h (KRas G12C [1]): +++ (covalent labeling > 90%)
- Covalent adduct formation 48h (KRas G12C [1]): +++ (covalent labeling > 90%)
SMILES: Cc1cc(C)c(NCC(=O)N2CCN(C(=O)c3cnc(Cl)nc3)CC2)c(C)c1 [Compound 9, 1-(4-(2-chloropyrimidine-5-carbonyl)piperazin-1-yl)-2-(mesitylamino)ethan-1-one]

- Covalent adduct formation 30 min (KRas G12C [1]): +++ (covalent labeling > 90%)
- Covalent adduct formation 24h (KRas G12C [1]): +++ (covalent labeling > 90%)
- Covalent adduct formation 48h (KRas G12C [1]): +++ (covalent labeling > 90%)
SMILES: CCC(C)(C)c1cc(NCC(=O)N2CCN(S(=O)(=O)c3cnc(Cl)nc3)CC2)c(O)cc1Cl [Compound 7, 2-((4-chloro-2-hydroxy-5-(tert-pentyl)phenyl)amino)-1-(4-((2-chloropyrimidin-5-yl)sulfonyl)piperazin-1-yl)ethan-1-one]

- Covalent adduct formation 30 min (KRas G12C [1]): + (5 < covalent labeling ≤ 50)
- Covalent adduct formation 24h (KRas G12C [1]): ++ (50 < covalent labeling ≤ 90)
- Covalent adduct formation 48h (KRas G12C [1]): +++ (covalent labeling > 90%)
SMILES: CC(C)(C)c1cc(NCC(=O)N2CCN(C(=O)c3cnc(Cl)cn3)CC2)c(O)cc1Cl [Compound 8, 2-((5-(tert-butyl)-4-chloro-2-hydroxyphenyl)amino)-1-(4-(5-chloropyrazine-2-carbonyl)piperazin-1-yl)ethan-1-one]
